Source: patent publication US12138256B2, “Treatment of cardiopulmonary disorders” (Bayer Aktiengesellschaft, priority 2021, dated 2024)
Values joined by “and” are separate entries in the source; they are usually repeats but may differ in a detail not shown here. Identical values can stand only once.

How the values were obtained:
[1] = Particle size distribution by laser diffraction with dry dispersion; assay type: physicochemical; settings: after micronization, dry measurement (3 or 4 bar)
Experimental: All measurements cited in the above tables were obtained by laser diffraction with dry dispersion using compressed air. Measuring in aqueous suspension with surfactants may lead to smaller particle sizes (×90 up to 1 μm smaller).
The particle size analysis data are usually reported as cumulative undersized distribution by volume. The symbol x is used to denote the particle size, which is defined as diameter of a volume equivalent sphere. Most common characteristic values are calculated from the particle size distribution by interpolation. Frequently used are the particle sizes at the undersize values of 10%, 50% and 90% of the volume distribution, denoted as x10, x50 and x90. x50 is also known as median particle size. The symbol d is widely used to designate the particle size, thus the symbol x may be replaced by the symbol d.

[2] = system: thromboxane analog U46619 induced PAH in minipigs; assay: PAH minipig model: comparison with and on top of standard of care (bosentan, sildenafil, riociguat); assay type: in vivo, Göttingen minipig
From the text: Efficacy of inhaled comparative example 11 was compared with systemically applied bosentan, sildenafil and riociguat (see FIG. 53a) in the PAH minipig model. […] Therefore inhaled application of comparative example 11 offers clear benefits as systemic effects are avoided, compared to standard of care.

[3] = Bosentan 1 mg/kg systemically applied, % change per animal

Row | SMILES | PSD X10 [1] | PSD X50 [1] | PSD X90 [1] | BP decrease % [2, 3] | PAP decrease % [2, 3] | effects on PAP and BP ([2]; bosentan 1 mg/kg, sildenafil 300 μg/kg/h, riociguat 3 μg/kg/h systemically, comparative example 11 30 and 100 μg/kg inhaled)
1 | O.O=C(O)c1ccc(CCN(CCc2ccccc2OCc2ccc(-c3ccc(C(F)(F)F)cc3)cc2Cl)[C@H]2CCCc3nc(C(=O)O)ccc32)cc1 [8c] | X10: 0.4 μm, | X50: 1.8 μm, | X90: 4.8 μm |  |  | 
2 | O.O=C(O)c1ccc(CCN(CCc2ccccc2OCc2ccc(-c3ccc(C(F)(F)F)cc3)cc2Cl)[C@H]2CCCc3nc(C(=O)O)ccc32)cc1 [8d] | X10: 0.5 μm, | X50: 2.3 μm, | X90: 9.6 μm |  |  | 
3 | O.O=C(O)c1ccc(CCN(CCc2ccccc2OCc2ccc(-c3ccc(C(F)(F)F)cc3)cc2Cl)[C@H]2CCCc3nc(C(=O)O)ccc32)cc1 [8f] | X10: 0.6 μm, | X50: 2.4 μm, | X90: 6.3 μm |  |  | 
4 | O.O=C(O)c1ccc(CCN(CCc2ccccc2OCc2ccc(-c3ccc(C(F)(F)F)cc3)cc2Cl)[C@H]2CCCc3nc(C(=O)O)ccc32)cc1 [8g] | X10: 0,5 μm, | X50: 1.8 μm, | X90: 3.9 μm |  |  | 
5 | COc1ccccc1Oc1c(NS(=O)(=O)c2ccc(C(C)(C)C)cc2)nc(-c2ncccn2)nc1OCCO [Bosentan, reference compound] |  |  |  | −6.7% and −15.0% and −10.3% and −12.7% | −3.7% and 3.9% and −7.7% and −16.0% | decrease in BP with only minor effects on PAP
